# Experimental data reported in patent publication US20070060636A1, “High enantiomeric purity dexanabinol for pharmaceutical compositions” (priority 2002, published 2007).
# Read-outs that look alike come from different tables or passages of the source.
# Tests used:
# [1] = 2nd Phase I study, single i.v. dose 48 or 150 mg, healthy male volunteers; format: in vivo, human; conditions: for AUC∞/Dose: normalized for dose (mg/kg); for clearance / Cmax / MRT / AUC / AUC(0-inf) / half-life / Vd: male, human, plasma; for Vd: read-out: Vss
# Description: (§1) Pharmacokinetic parameters were estimated by a non-compartmental method using WinNonlin Professional version 3.2 (Pharsight Corp., Mountain View, Calif.). The maximum plasma concentration (Cmax), when the drug is administered by infusion, is the concentration at the end of infusion. The Cmax following intravenous bolus administration is the value estimated by the software to be the concentration at t=0. The terminal slope (X) was estimated by linear regression through the last time points and used to calculate the terminal half-life (t1/2) from the following equation: t1/2=0.693/λ The area under the curve from time of dosing through the last time point (AUCz) was calculated by the linear trapezoid method. The AUC extrapolated to infinity (AUC∞) was calculated from the following equation: AUC∞=AUCz+Cz/λ where Cz is the concentration at the last time point predicted by the linear regression. AUC∞ was normalized for dose (mg/kg) and presented as AUC∞/Dose. Mean residence time (MRT), when the drug is administered by infusion is described by the following equation: MRT=(AUMC/AUC)−(TI)/2 Mean residence time after i.v. bolus administration is described by the following equation: MRT=(AUMC/AUC) where AUMC is the area under the first moment curve and TI is the length of infusion. Plasma clearance (CL), and the apparent volume of distribution at steady state (Vss) were calculated from the following equations: CL=Dose/AUC∞ Vss=MRT×CL
# A second human Phase I study involving 24 healthy male volunteers was carried out to compare the pharmacokinetics of dexanabinol following a single i.v. dose of 48 mg or 150 mg. The subjects were divided into two groups of 12 subjects each. Each group was premedicated with ATOSIL® 25 mg (Promethazine H1 blocker), and ZANTAC® 50 mg (Ranitidine H2 blocker) intravenously, followed 15 minutes later by a single short intravenous infusion of dexanabinol lasting 15 minutes. Blood samples for pharmacokinetic assays for dexanabinol were collected immediately before premedication (T=0), immediately after dosing (T=0+) (at the end of the infusion), at 5, 10, 20, 30, 45, and 60 min, and 2, 4, 6, 8, 12, 16, 24, 48, 72 and 96 hr post-dosing. Blood was also collected from four subjects from group 2 ([…]) on Days 6, 10 and 14. For both dose levels, initial rapid declines in plasma concentration followed by a progressively slower decline were observed.
# Pharmacokinetic parameters were estimated by non-compartmental methods up to 96 hr post-infusion, using WinNonlin Professional version 3.2 (Pharsight Corp., Mountain View, Calif., USA).
# [2] = 28-day multiple dose study, monkey; format: in vivo, monkeys; conditions: for AUC(0-inf) / Cmax: plasma, 25 mg/kg i.v. daily, final dose Day 28 (NOAEL); for AUC∞ Ratio to Phase I / Cmax Ratio to Phase I / AUC∞ Ratio to Phase II / Cmax Ratio to Phase II: 25 mg/kg Day 28; for AUC∞ Ratio to Phase I / Cmax Ratio to Phase I: vs human 150 mg Phase I; for AUC∞ Ratio to Phase II / Cmax Ratio to Phase II: vs human 150 mg Phase II
# Description: The pharmacokinetics of dexanabinol of high enantiomeric purity formulated in CREMOPHOR EL®:ethanol as described in Example 4 were investigated in rats, rabbits, and monkeys following intravenous administration of single doses, and 14 and 28 days of repeated dosing. Human pharmacokinetics was studied during Phase I and Phase II clinical studies. Dexanabinol used in the pharmacokinetic studies was formulated as drug concentrates of 50 and 100 mg/ml and diluted with sterile 0.9% NaCl solution prior to intravenous (i.v.) administration to the desired final doses. Determination of dexanabinol concentrations in plasma and brain extracts was carried out using a validated Gas Chromatography-Mass Spectra (GC-MS) assay following solid phase extraction of the drug and derivatization. The limit of quantitation of the assay is 0.1 ng/ml.
# as §1
# In 14-day multiple dose pharmacokinetic studies, the NOAEL was 15 mg/kg/day in rats and 25 mg/kg/day in rabbits. In a 28-day study in monkeys the NOAEL was 25 mg/kg/day. Cmax and AUC observed following the last dose at the NOAEL in the multiple dose toxicity studies and the ratios of these values to those observed in the Phase I and II studies for the 150 mg dose are shown in Table 7.
# [3] = human Phase I, 150 mg single i.v., reference itself
# [4] = iv, 48 mg single i.v. infusion, healthy volunteers, mean ± SE
# [5] = iv, 48 mg single i.v. infusion, healthy volunteers, mean ± SE, up to 96 hr
# [6] = iv, 150 mg single i.v. infusion, healthy volunteers, mean ± SE
# [7] = iv, 150 mg single i.v. infusion, healthy volunteers, mean ± SE, up to 96 hr
# [8] = both sexes, iv, monkey male & female
structure (smiles),measurement,setting,value
"CCCCCCC(C)(C)c1cc(O)c2c(c1)OC(C)(C)[C@H]1CC=C(CO)C[C@H]21 [dexanabinol, 1,1-dimethylheptyl-(3S,4S)-7-hydroxy-Δ^6-tetrahydrocannabinol]",30 min plasma values as % of the end of infusion levels,[1]; 48 mg and 150 mg,about 11%
same,AUC∞/Dose,"[1]; 48 mg single i.v. infusion, healthy volunteers, mean ± SE","78,137 ± 4,305 ng × min/ml"
same,AUC∞/Dose,"[1]; 150 mg single i.v. infusion, healthy volunteers, mean ± SE","93,408 ± 4,224 ng × min/ml"
same,AUC∞ Ratio to Phase I,[1]; [3],1.0
same,Cmax Ratio to Phase I,[1]; [3],1.0
same,clearance,"[1]; intravenous, 48 mg and 150 mg, read-out: Total plasma clearance (CL), average across the two dose groups",0.72 L/h/kg
same,Cmax,"[1]; intravenous, after the 48 mg dose (0.63 mg/kg), read-out: Maximum plasma concentrations (Cmax)",1.23 µg/mL
same,Cmax,"[1]; intravenous, at 150 mg (2.05 mg/kg), read-out: Maximum plasma concentrations (Cmax)",5 µg/mL
same,MRT,[1]; [4],8.4 ± 0.5 h
same,AUC,[1]; [5],0.811 µg·h/mL
same,AUC(0-inf),[1]; [5],0.824 µg·h/mL
same,half-life,[1]; [5],31.2 ± 3.6 h
same,Cmax,"[1]; iv, 48 mg single i.v. infusion, healthy volunteers, mean ± SE, up to 96 hr, read-out: Cmax",1.23 µg/mL
same,clearance,"[1]; iv, 48 mg single i.v. infusion, healthy volunteers, mean ± SE, read-out: CL",0.792 ± 0.042 L/h/kg
same,Vd,[1]; [4],6.6 ± 0.5 L/kg
same,MRT,[1]; [6],6.9 ± 0.4 h
same,AUC,[1]; [7],3.18 µg·h/mL
same,AUC(0-inf),[1]; [7],3.21 µg·h/mL
same,half-life,[1]; [7],23.4 ± 1.8 h
same,Cmax,"[1]; iv, 150 mg single i.v. infusion, healthy volunteers, mean ± SE, up to 96 hr, read-out: Cmax",5.01 µg/mL
same,clearance,"[1]; iv, 150 mg single i.v. infusion, healthy volunteers, mean ± SE, read-out: CL",0.654 ± 0.03 L/h/kg
same,Vd,[1]; [6],4.5 ± 0.4 L/kg
same,safety in human subjects,[1]; the two phase I studies,"safe, well tolerated and no psychomimetic side effects were detected"
same,AUC(0-inf),[2]; [8],193 µg·h/mL
same,Cmax,[2]; [8],162 µg/mL
same,AUC∞ Ratio to Phase I,[2]; monkey female,55.5
same,Cmax Ratio to Phase I,[2]; monkey female,32.2
same,AUC∞ Ratio to Phase II,[2]; monkey female,120.0
same,Cmax Ratio to Phase II,[2]; monkey female,81.9
same,AUC∞ Ratio to Phase I,[2]; monkey male & female,60.2
same,Cmax Ratio to Phase I,[2]; monkey male & female,32.4
same,AUC∞ Ratio to Phase II,[2]; monkey male & female,130.2
same,Cmax Ratio to Phase II,[2]; monkey male & female,82.5
same,AUC∞ Ratio to Phase I,[2]; monkey male,64.9
same,Cmax Ratio to Phase I,[2]; monkey male,32.6
same,AUC∞ Ratio to Phase II,[2]; monkey male,140.4
same,Cmax Ratio to Phase II,[2]; monkey male,83.0
same,NOAEL at 28 days,"[2]; monkey, in vivo, iv, 28-day study i.v.",25 mg/kg/day
same,AUC(0-inf),"[2]; iv, monkey female",178 µg·h/mL
same,Cmax,"[2]; iv, monkey female",161 µg/mL
same,AUC(0-inf),"[2]; iv, monkey male",208 µg·h/mL
same,Cmax,"[2]; iv, monkey male",163 µg/mL
